Measurements as given in patent US10537558B2 (Bantam Pharmaceutical, LLC, priority 2015, dated 2020).

Test system: BJAB cells
Experiment: BJAB cell proliferation (Cell Titer Glo)
Type: cell-based
Conditions: Homo sapiens, read-out: EC50
In short: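 BJAB cells exposed to serially diluted compounds (0.1% DMSO final) for about 72 h at 37 °C. Proliferation read by Cell Titer Glo luminescence as percent of untreated controls; EC50 from non-linear regression of dose-response data.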

SMILES | EC50 [µM]
Cc1cc(-c2c(C)nn(-c3nc(-c4ccc(Cl)c(Cl)c4)c(SC(C)C)s3)c2C(=O)O)cc(N2CCC2)n1 [Compound 101, 4-(2-(azetidin-1-yl)-6-methylpyridin-4-yl)-1-(4-(3,4-dichlorophenyl)-5-(isopropylthio)thiazol-2-yl)-3-methyl-1H-pyrazole-5-carboxylic acid] | 1 to 5
Cc1cc(-c2c(C)nn(-c3nc(-c4ccc(Cl)c(Cl)c4)c(SC(C)C)s3)c2C(=O)O)cc(N2CCOCC2)n1 [Compound 102, 1-(4-(3,4-dichlorophenyl)-5-(isopropylthio)thiazol-2-yl)-3-methyl-4-(2-methyl-6-morpholinopyridin-4-yl)-1H-pyrazole-5-carboxylic Acid] | 5 to 10
COc1cccc(-c2nc(-n3nc(C)c(Cc4ccccc4[N+](=O)[O-])c3C(=O)O)sc2SC(C)C)c1 [Compound 103, 1-(5-(isopropylthio)-4-(3-methoxyphenyl)thiazol-2-yl)-3-methyl-4-(2-nitrobenzyl)-1H-pyrazole-5-carboxylic Acid] | > 80
Cc1nn(-c2nc(-c3ccc(Cl)c(Cl)c3)c(SCCC(C)C)s2)c(C(=O)O)c1Cc1ccccc1[N+](=O)[O-] [Compound 104, 1-(4-(3,4-dichlorophenyl)-5-(isopentylthio)thiazol-2-yl)-3-methyl-4-(2-nitrobenzyl)-1H-pyrazole-5-carboxylic acid] | 25 to 50
COc1cccc(-c2nc(-n3nc(C)c(Cc4ccccc4NS(C)(=O)=O)c3C(=O)O)sc2SC(C)C)c1 [Compound 105, 1-(5-(isopropylthio)-4-(3-methoxyphenyl)thiazol-2-yl)-3-methyl-4-(2-(methylsulfonamido)benzyl)-1H-pyrazole-5-carboxylic acid] | > 80
CCC(C)Sc1sc(-n2nc(C)c(Cc3ccccc3[N+](=O)[O-])c2C(=O)O)nc1-c1ccc(Cl)c(Cl)c1 (stereo not drawn) [Compound 106, 1-(5-(sec-butylthio)-4-(3,4-dichlorophenyl)thiazol-2-yl)-3-methyl-4-(2-nitrobenzyl)-1H-pyrazole-5-carboxylic acid] | 10 to 25
Cc1nn(-c2nc(-c3ccc(Cl)c(Cl)c3)c(SC(C)C)s2)c(C(=O)O)c1-c1ccc2cc[nH]c2c1 [Compound 107, 1-(4-(3,4-dichlorophenyl)-5-(isopropylthio)thiazol-2-yl)-4-(1H-indol-6-yl)-3-methyl-1H-pyrazole-5-carboxylic acid] | 25 to 50
Cc1nn(-c2nc(-c3ccc(Cl)c(Cl)c3)c(SC(C)C)s2)c(C(=O)O)c1-c1cccc([N+](=O)[O-])c1 [Compound 108, 1-(4-(3,4-dichlorophenyl)-5-(isopropylthio)thiazol-2-yl)-3-methyl-4-(3-nitrophenyl)-1H-pyrazole-5-carboxylic Acid] | 5 to 10
Cc1nn(-c2nc(-c3ccc(Cl)c(Cl)c3)c(SC(C)C)s2)c(C(=O)O)c1-c1cn[nH]c1 [Compound 109, 2-(4-(3,4-dichlorophenyl)-5-(isopropylthio)thiazol-2-yl)-5-methyl-4,4′-bi(2H-pyrazole)-3-carboxylic acid] | 25 to 50
Cc1nn(-c2nc(-c3ccc(Cl)c(Cl)c3)c(SC(C)C)s2)c(C(=O)O)c1-c1c[nH]c2ccccc12 [Compound 110, 1-(4-(3,4-dichlorophenyl)-5-(isopropylthio)thiazol-2-yl)-4-(1H-indol-3-yl)-3-methyl-1H-pyrazole-5-carboxylic acid] | 10 to 25
Cc1nn(-c2nc(-c3ccc(Cl)c(Cl)c3)c(SC(C)C)s2)c(C(=O)O)c1-c1ccccc1Cl [Compound 111, 4-(2-chlorophenyl)-1-(4-(3,4-dichlorophenyl)-5-(isopropylthio)thiazol-2-yl)-3-methyl-1H-pyrazole-5-carboxylic acid] | 10 to 25
Cc1nn(-c2nc(-c3ccc(Cl)c(Cl)c3)c(SC(C)C)s2)c(C(=O)O)c1-c1cccc(Cl)c1 [Compound 112, 4-(3-chlorophenyl)-1-(4-(3,4-dichlorophenyl)-5-(isopropylthio)thiazol-2-yl)-3-methyl-1H-pyrazole-5-carboxylic Acid] | 1 to 5
Cc1nn(-c2nc(-c3ccc(Cl)c(Cl)c3)c(SC(C)C)s2)c(C(=O)O)c1-c1ccc(Cl)cc1 [Compound 113, 4-(4-chlorophenyl)-1-(4-(3,4-dichlorophenyl)-5-(isopropylthio)thiazol-2-yl)-3-methyl-1H-pyrazole-5-carboxylic acid] | 10 to 25
COc1ccccc1-c1c(C)nn(-c2nc(-c3ccc(Cl)c(Cl)c3)c(SC(C)C)s2)c1C(=O)O [Compound 114, 1-(4-(3,4-dichlorophenyl)-5-(isopropylthio)thiazol-2-yl)-4-(2-methoxyphenyl)-3-methyl-1H-pyrazole-5-carboxylic acid] | 10 to 25
COc1cccc(-c2c(C)nn(-c3nc(-c4ccc(Cl)c(Cl)c4)c(SC(C)C)s3)c2C(=O)O)c1 [Compound 115, 1-(4-(3,4-dichlorophenyl)-5-(isopropylthio)thiazol-2-yl)-4-(3-methoxyphenyl)-3-methyl-1H-pyrazole-5-carboxylic Acid] | 1 to 5
COc1ccc(-c2c(C)nn(-c3nc(-c4ccc(Cl)c(Cl)c4)c(SC(C)C)s3)c2C(=O)O)cc1 [Compound 116, 1-(4-(3,4-dichlorophenyl)-5-(isopropylthio)thiazol-2-yl)-4-(4-methoxyphenyl)-3-methyl-1H-pyrazole-5-carboxylic acid] | 10 to 25
Cc1ccccc1-c1c(C)nn(-c2nc(-c3ccc(Cl)c(Cl)c3)c(SC(C)C)s2)c1C(=O)O [Compound 117, 1-(4-(3,4-dichlorophenyl)-5-(isopropylthio)thiazol-2-yl)-3-methyl-4-o-tolyl-1H-pyrazole-5-carboxylic acid] | 5 to 10
Cc1cccc(-c2c(C)nn(-c3nc(-c4ccc(Cl)c(Cl)c4)c(SC(C)C)s3)c2C(=O)O)c1 [Compound 118, 1-(4-(3,4-dichlorophenyl)-5-(isopropylthio)thiazol-2-yl)-3-methyl-4-m-tolyl-1H-pyrazole-5-carboxylic Acid] | 1 to 5
Cc1ccc(-c2c(C)nn(-c3nc(-c4ccc(Cl)c(Cl)c4)c(SC(C)C)s3)c2C(=O)O)cc1 [Compound 119, 1-(4-(3,4-dichlorophenyl)-5-(isopropylthio)thiazol-2-yl)-3-methyl-4-p-tolyl-1H-pyrazole-5-carboxylic acid] | 10 to 25
CC(=O)Nc1ccc(-c2c(C)nn(-c3nc(-c4ccc(Cl)c(Cl)c4)c(SC(C)C)s3)c2C(=O)O)cc1 [Compound 120, 4-(4-acetamidophenyl)-1-(4-(3,4-dichlorophenyl)-5-(isopropylthio)thiazol-2-yl)-3-methyl-1H-pyrazole-5-carboxylic acid] | > 50
Cc1nn(-c2nc(-c3ccc(Cl)c(Cl)c3)c(SC(C)C)s2)c(C(=O)O)c1Cc1ccccc1NS(C)(=O)=O [Compound 121, 1-(4-(3,4-dichlorophenyl)-5-(isopropylthio)thiazol-2-yl)-3-methyl-4-(2-(methylsulfonamido)benzyl)-1H-pyrazole-5-carboxylic acid] | > 50
Cc1nn(-c2nc(-c3ccc(Cl)c(Cl)c3)c(SC(C)C)s2)c(C(=O)O)c1Cc1ccccc1NS(=O)(=O)N(C)C [Compound 122, 1-(4-(3,4-dichlorophenyl)-5-(isopropylthio)thiazol-2-yl)-4-(2-(N,N-dimethylsulfamoylamino)benzyl)-3-methyl-1H-pyrazole-5-carboxylic acid] | 10 to 25
Cc1nn(-c2nc(-c3ccc(Cl)c(Cl)c3)c(SC(C)C)s2)c(C(=O)O)c1-c1ccc(N)cc1 [Compound 123, 4-(4-aminophenyl)-1-(4-(3,4-dichlorophenyl)-5-(isopropylthio)thiazol-2-yl)-3-methyl-1H-pyrazole-5-carboxylic acid] | 25 to 50
Cc1nn(-c2nc(-c3ccc(Cl)c(Cl)c3)c(SC(C)C)s2)c(C(=O)O)c1-c1ccc(NS(C)(=O)=O)cc1 [Compound 124, 1-(4-(3,4-dichlorophenyl)-5-(isopropylthio)thiazol-2-yl)-3-methyl-4-(4-(methylsulfonamido)phenyl)-1H-pyrazole-5-carboxylic acid] | > 50
Cc1nn(-c2nc(-c3ccc(Cl)c(Cl)c3)c(SC(C)C)s2)c(C(=O)O)c1-c1cccc(NS(C)(=O)=O)c1 [Compound 125, 1-(4-(3,4-dichlorophenyl)-5-(isopropylthio)thiazol-2-yl)-3-methyl-4-(3-(methylsulfonamido)phenyl)-1H-pyrazole-5-carboxylic acid] | > 50
COCCn1cc(-c2c(C)nn(-c3nc(-c4ccc(Cl)c(Cl)c4)c(SC(C)C)s3)c2C(=O)O)cn1 [Compound 126, 2-(4-(3,4-dichlorophenyl)-5-(isopropylthio)thiazol-2-yl)-2′-(2-methoxyethyl)-5-methyl-4,4′-bi(2H-pyrazole)-3-carboxylic acid] | 10 to 25
Cc1nn(-c2nc(-c3ccc(Cl)c(Cl)c3)c(SC(C)C)s2)c(C(=O)O)c1-c1cccc2cc[nH]c12 [Compound 127, 1-(4-(3,4-dichlorophenyl)-5-(isopropylthio)thiazol-2-yl)-4-(1H-indol-7-yl)-3-methyl-1H-pyrazole-5-carboxylic acid] | 5 to 10
Cc1nn(-c2nc(-c3ccc(Cl)c(Cl)c3)c(SC(C)C)s2)cc1-c1cccc2cc[nH]c12 [Compound 128, 2-(4-(1H-indol-7-yl)-3-methyl-1H-pyrazol-1-yl)-4-(3,4-dichlorophenyl)-5-(isopropylthio)thiazole] | 10 to 25
CCn1cc(-c2c(C)nn(-c3nc(-c4ccc(Cl)c(Cl)c4)c(SC(C)C)s3)c2C(=O)O)cn1 [Compound 129, 2-(4-(3,4-dichlorophenyl)-5-(isopropylthio)thiazol-2-yl)-2′-ethyl-5-methyl-4,4′-bi(2H-pyrazole)-3-carboxylic Acid] | 5 to 10
COCCNC(=O)c1c(-c2cccc(C)c2)c(C)nn1-c1nc(-c2ccc(Cl)c(Cl)c2)c(SC(C)C)s1 [Compound 130, 1-(4-(3,4-dichlorophenyl)-5-(isopropylthio)thiazol-2-yl)-N-(2-methoxyethyl)-3-methyl-4-m-tolyl-1H-pyrazole-5-carboxamide] | > 50
